According to patent US20210246115A1 (Bioimics AB, priority 2017, published 2021):
pIC50: −log10 of the molar value. ≈ marks a conversion by molar mass, not a printed value. Structures can show the parent of a compound that is named as a salt.

Columns and labels:
[1] = tested on: Escherichia coli (ATCC25922); experiment: MIC, broth microdilution (CLSI), Escherichia coli; details: Escherichia coli, ATCC25922, read-out: E. coli ATCC 25922 MIC, Table XIII
[2] = tested on: E. coli RNase P RNA, M1 RNA; experiment: Inhibition of bacterial RNase P activity, IC50 determination (cleavage of pATSerUG by M1 RNA); format: biochemical; details: NI: No inhibition
[3] = tested on: Staphylococcus aureus (ATCC25923); experiment: MIC, broth microdilution (CLSI), Staphylococcus aureus ATCC25923; details: Staphylococcus aureus, ATCC25923, read-out: S. aureus ATCC 25923 MIC

| MIC [1] [mg/L] | pIC50 [2] | MIC [3] [mg/L] | RNase P Inhibition IC50 [2] | SMILES | pIC50 ([2]; hydrochloride salt) |
| --- | --- | --- | --- | --- | --- |
| 512 | 4.19 | 8 |  | Cc1cc(F)cc(C(CC(=O)NC2CCC(N)CC2)c2cn(CC3CCCCC3)c3ccccc23)c1.Cl [Compound 150, N-((1S,4S)-4-aminocyclohexyl)-3-(1-(cyclohexylmethyl)-1H-indol-3-yl)-3-(3-fluoro-5-methylphenyl) propanamide hydrochloride salt] |  |
| 31 | 5.00 | 15 |  | Cl.N[C@H]1CC[C@H](NC(=O)Cc2cn(CC3CCCCC3)c3ccc(Br)cc23)CC1 [Compound 190, N-((1R,4R)-4-aminocyclohexyl)-2-(5-bromo-1-(cyclohexylmethyl)-1H-indol-3-yl)acetamide hydrochloride salt] |  |
| 64 | 5.12 | 4 |  | Cc1cccc(-c2ccc3c(c2)c(CCC(=O)NC2CCC(N)CC2)cn3CC2CCCCC2)c1.Cl (stereo not drawn) [Compound 144, N-((1s,4s)-4-aminocyclohexyl)-3-(1-(cyclohexylmethyl)-5-(m-tolyl)-1H-indol-3-yl)propanamide hydrochloride salt] |  |
| 63 | 5.27 | 4 |  | Cc1cccc(-c2ccc3c(c2)c(CC(=O)N[C@H]2CC[C@H](N)CC2)cn3CC2CCCCC2)c1.Cl [Compound 209, N-((1R,4R)-4-aminocyclohexyl)-2-(1-(cyclohexylmethyl)-5-(m-tolyl)-1H-indol-3-yl)acetamide hydrochloride salt] |  |
| 296 | 5.52 | 18 |  | Cl.N[C@H]1CC[C@H](NC(=O)CCc2cn(CC3CCCCC3)c3ccc(-c4cccc(OC(F)(F)F)c4)cc23)CC1 [Compound 213, N-((1R,4R)-4-aminocyclohexyl)-3-(1-(cyclohexylmethyl)-5-(3-(trifluoromethoxy)phenyl)-1H-indol-3-yl) propanamide hydrochloride salt] |  |
| > 512 | 4.46 | 17 |  | Cc1cccc(C(CC(=O)NC2CCC(N)CC2)c2c(C)n(CC3CCCCC3)c3ccccc23)c1.Cl [Compound 243, N-((1S,4S)-4-aminocyclohexyl)-3-(1-(cyclohexylmethyl)-2-methyl-1H-indol-3-yl)-3-(m-tolyl)propanamide hydrochloride salt] |  |
| 512 | 4.85 | 32 |  | Cc1cccc(C(CC(=O)N[C@H]2CC[C@H](N)CC2)c2cn(CCC3CCCCC3)c3ccccc23)c1.Cl (stereo partly drawn) [Compound 113, N-((1R,4R)-4-aminocyclohexyl)-3-(1-(2-cyclohexylethyl)-1H-indol-3-yl)-3-(m-tolyl)propanamide hydrochloride salt] |  |
| 151 | 4.77 | 9 |  | Cc1cccc(C(CC(=O)NC2CCC(N)CC2)c2cn(CC3CCCCC3)c3ccc(-c4ccnn4C)cc23)c1.Cl (stereo not drawn) [Compound 183, N-(4-aminocyclohexyl)-3-(1-(cyclohexylmethyl)-5-(1-methyl-1H-pyrazol-5-yl)-1H-indol-3-yl)-3-(m-tolyl)propanamide hydrochloride salt] |  |

Further lines, the compound ahead of its results:

| SMILES | MIC [1] [mg/L] | pIC50 [2] | MIC [3] [mg/L] | RNase P Inhibition IC50 [2] | pIC50 ([2]; hydrochloride salt) |
| --- | --- | --- | --- | --- | --- |
| Cc1cccc(C(CC(=O)N[C@H]2CC[C@@H](N)CC2)c2cn(CC3CCCCC3)c3ccccc23)c1.Cl (stereo partly drawn) [Compound 114, N-((1s,4s)-4-aminocyclohexyl)-3-(1-(cyclohexylmethyl)-1H-indol-3-yl)-3-(m-tolyl)propanamide hydrochloride salt] | 64 | 4.85 | 8 |  |  |
| Cc1cccc(C(CC(=O)NC2CCC(C(=O)NO)CC2)c2cn(CC3CCCCC3)c3ccccc23)c1 [Compound 247, (1S,4S)-4-(3-(1-(cyclohexylmethyl)-1H-indol-3-yl)-3-(m-tolyl)propanamido)-N-hydroxycyclohexane-1-carboxamide hydrochloride salt] | > 512 |  | > 512 | Ni |  |
| Cc1cccc(C(CC(=O)NC2CCNCC2)c2cn(CC3CCCC3)c3ccccc23)c1.Cl (stereo not drawn) [Compound 112, 3-(1-(cyclopentylmethyl)-1H-indol-3-yl)-N-(piperidin-4-yl)-3-(m-tolyl)propanamide hydrochloride salt] | 64 | 4.17 | 16 |  |  |
| Cc1cccc(C(CC(=O)NCC2CCC(N)CC2)c2cn(CC3CCCCC3)c3ccccc23)c1.Cl [Compound 180, N-(((1R,4R)-4-aminocyclohexyl)methyl)-3-(1-(cyclohexylmethyl)-1H-indol-3-yl)-3-(m-tolyl)propanamide hydrochloride salt] | 67 | 4.74 | 17 |  |  |
| Cc1cccc(C(CC(=O)N[C@H]2CC[C@H](N)CC2)c2cn(CC3CCCCC3)c3ccc(F)cc23)c1.Cl (stereo partly drawn) [Compound 125, N-((1R,4R)-4-aminocyclohexyl)-3-(1-(cyclohexylmethyl)-5-fluoro-1H-indol-3-yl)-3-(m-tolyl)propanamide hydrochloride salt] | 256 | 4.54 | 8 |  |  |
| O=C(CC(c1cn(CC2CCCCC2)c2ccccc12)C1CCNCC1)NC1CCNCC1 (stereo not drawn) [Compound 106, 3-(1-(cyclohexylmethyl)-1H-indol-3-yl)-N,3-di(piperidin-4-yl)propanamide hydrochloride salt] | 512 | 2.91 | 512 |  |  |
| NC1CCC(NC(=O)Cc2cn(CC3CCCCC3)c3ccc(-c4ccncc4)cc23)CC1 [Compound 255, N-((1S,4S)-4-aminocyclohexyl)-2-(1-(cyclohexylmethyl)-5-(pyridin-4-yl)-1H-indol-3-yl)acetamide hydrochloride salt] | 66 | 4.48 | 8 |  |  |
| Cl.N[C@H]1CC[C@H](NC(=O)CCc2nn(CC3CCCCC3)c3ccc(Br)cc23)CC1 [Compound 270, N-((1r,4r)-4-aminocyclohexyl)-3-(5-bromo-1-(cyclohexylmethyl)-1H-indazol-3-yl)propanamide hydrochloride salt] | 127 | 3.87 | 64 |  |  |
| Cc1cccc(C(CC(=O)NC2CCNCC2)c2cn(CC3CCOCC3)c3ccc(Br)cc23)c1.Cl (stereo not drawn) [Compound 285, 3-(5-bromo-1-((tetrahydro-2H-pyran-4-yl)methyl)-1H-indol-3-yl)-N-(piperidin-4-yl)-3-(m-tolyl) propanamide hydrochloride salt] | 147 | 4.13 | 37 |  |  |
| Cc1cccc(C(CC(=O)N2CCC(CN)CC2)c2cn(CC3CCCCC3)c3ccccc23)c1.Cl (stereo not drawn) [Compound 167, 1-(4-(aminomethyl)piperidin-1-yl)-3-(1-(cyclohexylmethyl)-1H-indol-3-yl)-3-(m-tolyl)propan-1-one hydrochloride salt] | 65 | 4.85 | 8 |  |  |
| Cl.N[C@H]1CC[C@H](NCCC(c2cn(CC3CCCCC3)c3ccccc23)C2CCCCC2)CC1 (stereo partly drawn) [Compound 204, (1rR4R)-N1-(3-cyclohexyl-3-(1-(cyclohexylmethyl)-1H-indol-3-yl)propyl) cyclohexane-1,4-diamine hydrochloride salt] | 4 | 4.30 | 2 |  |  |
| Cc1cccc(C(CC(=O)N[C@H]2CC[C@H](N)CC2)c2cn(C(C)C)c3ccccc23)c1.Cl (stereo partly drawn) [Compound 154, N-((1R,4R)-4-aminocyclohexyl)-3-(1-isopropyl-1H-indol-3-yl)-3-(m-tolyl)propanamide hydrochloride salt] | 256 | 2.91 | 128 |  |  |
| N[C@H]1CC[C@H](NC2CCC(c3cn(CC4CCCCC4)c4ccc(Br)cc34)CC2)CC1 (single isomer, unassigned) [Compound 265, (1r,4r)-N1-(4-(5-bromo-1-(cyclohexylmethyl)-1H-indol-3-yl)cyclohexyl)cyclohexane-1,4-diamine hydrochloride salt] | 2 |  | 2 |  | 4.82 |
| N[C@H]1CC[C@H](NC(=O)C2CCN(Cc3cn(CC4CCCCC4)c4ccc(Br)cc34)CC2)CC1 [Compound 272, N-((1R,4R)-4-aminocyclohexyl)-1-((5-bromo-1-(cyclohexylmethyl)-1H-indol-3-yl)methyl)piperidine-4-carboxamide] | 68 (≈ 128 µM) | 3.92 | 34 (≈ 64.2 µM) |  |  |
| Cc1ccccc1-c1ccc2c(c1)c(CC(=O)NC1CCC(N)CC1)cn2CC1CCCCC1.Cl [Compound 235, N-((1S,4S)-4-aminocyclohexyl)-2-(1-(cyclohexylmethyl)-5-(o-tolyl)-1H-indol-3-yl)acetamide hydrochloride salt] | 126 | 4.92 | 8 |  |  |
| NC1CCC(NCCc2cn(CC3CCCCC3)c3ccc(-c4ccccc4OC(F)(F)F)cc23)CC1 [Compound 241, (1S,4S)-N1-(2-(1-(cyclohexylmethyl)-5-(2-(trifluoromethoxy)phenyl)-1H-indol-3-yl)ethyl)cyclohexane-1,4-diamine hydrochloride salt] | 5 | 4.60 | 2 |  |  |
| Cc1cccc(C(CC(=O)N(C)C2CCNCC2)c2cn(CC3CCCCC3)c3ccc(Br)cc23)c1.Cl (stereo not drawn) [Compound 278, 3-(5-bromo-1-(cyclohexylmethyl)-1H-indol-3-yl)-N-methyl-N-(piperidin-4-yl)-3-(m-tolyl)propanamide hydrochloride salt] | > 512 | 4.82 | 2 |  |  |
| Cc1cccc(C(CC(=O)N(C)C2CCNCC2)c2cn(CC3CCCCC3)c3ccccc23)c1.Cl (stereo not drawn) [Compound 279, 3-(1-(cyclohexylmethyl)-1H-indol-3-yl)-N-methyl-N-(piperidin-4-yl)-3-(m-tolyl)propanamide hydrochloride salt] | 65 | 4.47 | 8 |  |  |
| Cc1ccccc1C(CC(=O)NC1CCC(N)CC1)c1cn(CC2CCCCC2)c2ccccc12.Cl [Compound 149, N-((1S,4S)-4-aminocyclohexyl)-3-(1-(cyclohexylmethyl)-1H-indol-3-yl)-3-(o-tolyl)propanamide hydrochloride salt] | > 512 | 4.89 | 16 |  |  |
